Measured values from US20250109135A1, “NOVEL ISOINDOLINONE DERIVATIVE COMPOUNDS AS CASPASE INHIBITORS” (INNOVO THERAPEUTICS INC., priority 2022, published 2025).

How the values were obtained:
Jurkat cells = test: Apoptosis inhibition activity in human T-lymphocyte cells Jurkat (anti-FAS antibody, intracellular ATP); format: cell-based; details: compound 50 nM, 1 μg/ml anti-FAS antibody 24 h, ATP luminescence
Procedure: To evaluate the effect of the compound of the present invention on apoptosis, Jurkat (ATCC) cells were treated with anti-FAS antibody CH-11 (Merck) to induce apoptosis via the Fas (CD95) receptor, which was assessed by the amount of intracellular ATP.
Jurkat cells were cultured in RPMI 1640 growth medium comprising 10% FBS and antibiotics (100 U/ml Penicillin, 0.1 mg/ml Streptomycin) under 37° C., 5% CO2 conditions. Cultured cells were seeded in growth medium to a concentration of 8×10^4 cells/well in 96-well plates (SPL), pretreated with compound at a concentration of 50 nM for 1 hour, and then treated with 1 μg/ml anti-FAS antibody for 24 hours in an incubator. After 24 h, an ATP lite Luminescence assay kit (PerkinElmer) was used to measure ATP and luminescence was measured at 580 nm using a CLARIOstar Plus spectrometer. If the inhibitory activity is 30% or more, it is denoted as a′, if it is 20% or more but less than 30%, it is denoted as b′, if it is 10% or more but less than 20%, it is denoted as c′, and if it is less than 10%, it is denoted as d′.

[1] = biological target: T1, recombinant human Caspase-1 (Homo sapiens, UniProt P29466); test: Caspase-1 inhibitory activity, fluorescent substrate Ac-YVAD-AFC; format: biochemical; details: pH 8; 1 unit recombinant human Caspase-1, 50 μM Ac-YVAD-AFC; read-out: kobs/[I] Caspase-1
T1 construct: purchased Enzo life science
T1 sequence (P29466 120-297 limits assumed): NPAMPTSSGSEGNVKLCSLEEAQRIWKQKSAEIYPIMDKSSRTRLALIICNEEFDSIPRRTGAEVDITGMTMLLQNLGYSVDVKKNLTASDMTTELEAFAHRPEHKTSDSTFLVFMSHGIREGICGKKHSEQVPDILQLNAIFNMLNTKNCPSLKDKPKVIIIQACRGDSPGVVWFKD
T1 sequence (P29466 317-404 limits assumed): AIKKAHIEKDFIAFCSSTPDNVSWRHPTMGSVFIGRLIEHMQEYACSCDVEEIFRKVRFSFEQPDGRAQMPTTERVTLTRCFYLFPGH
Method in brief: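 Inactivation kinetics with 1 unit enzyme and 50 μM Ac-YVAD-AFC in 50 mM HEPES pH 8.0, 50 mM KCl, 200 mM NaCl, 10 mM DTT, 0.1% CHAPS, at various compound concentrations. Rate followed over time at Ex/Em 400/505 nm. kobs/[I] binned: A ≥20, B 10–<20, C 1–<10, D <1.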

[2] = tested on: Secreted IL-1β in THP-1 cells; test: Interleukin-1β inhibitory activity in human monocytic cells THP-1 (ELISA); format: cell-based; details: compound 100 nM, PMA-differentiated THP-1, LPS 10 μg/ml then 5 mM ATP, 24 h
Method in brief: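 THP-1 cells were differentiated with 1 μM PMA for 24 h, primed with 10 μg/ml LPS in serum-free medium for 24 h, then given compound at 100 nM for 1 h before 5 mM ATP for 24 h. Secreted IL-1β was measured by ELISA, and inhibition was binned a ≥50%, b 30–<50%, c 10–<30%, d <10%.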

SMILES	inhibition at 0.05 µM (Jurkat cells) [%]	kinact/KI [1] [M⁻¹ s⁻¹]	inhibition at 0.1 µM [2] [%]
CCC(C(=O)NC(CC(=O)O)C(=O)CF)N1Cc2ccc(-c3ccc4ncccc4c3)cc2C1=O (stereo not drawn) [Compound 30, 5-fluoro-4-oxo-3-(2-(1-oxo-6-(quinolin-6-yl)isoindolin-2-yl)butanamido)pentanoic acid]	< 10	0.167 to 0.333	< 10
CC[C@@H](C(=O)N[C@@H](CC(=O)O)C(=O)COc1c(F)c(F)cc(F)c1F)N1Cc2ccc(-c3coc4ccccc34)cc2C1=O [Compound 50, (S)-3-((S)-2-(6-(benzofuran-3-yl)-1-oxoisoindolin-2-yl)butanamido)-4-oxo-5-(2,3,5,6-tetrafluorophenoxy)pentanoic acid]	≥ 30	0.167 to 0.333	≥ 50
CC(C)[C@@H](C(=O)NC(CC(=O)O)C(=O)CF)N1Cc2ccc(-c3ccc4c(c3)OCCO4)cc2C1=O (stereo partly drawn) [Compound 42, 3-((S)-2-(6-(2,3-dihydrobenzo[b][1,4]dioxin-6-yl)-1-oxoisoindolin-2-yl)-3-methylbutanamido)-5-fluoro-4-oxopentanoic acid]	≥ 30	0.0167 to 0.167	30 to 50
CCC(C(=O)NC(CC(=O)O)C(=O)CF)N1Cc2ccc(-c3cncc4ccccc34)cc2C1=O (stereo not drawn) [Compound 29, 5-fluoro-3-(2-(6-(isoquinolin-4-yl)-1-oxoisoindolin-2-yl)butanamido)-4-oxopentanoic acid]	< 10	0.0167 to 0.167	< 10
